According to patent publication US11672964B2, “Bioactive components conjugated to substrates of microneedle arrays” (University of Pittsburgh—Of the Commonwealth System of …, priority 2015, dated 2023):

Tests used:
B16 melanoma = assay: Treatment of established B16 skin tumors with MNAs; conditions: MNAs once weekly for three weeks; for survival: combination: long term survival through day 70
Protocol: B16 skin tumors were established in normal mice by injection. Visible established cutaneous tumors were treated once weekly for three weeks with MNAs containing either doxorubicin alone, Poly(I:C) alone, or doxorubicin and Poly(I:C) incorporated into the same MNA. […] Tumor growth and survival were measured regularly for the duration of the study.

human skin = assay: Apoptosis in human skin at the chosen MNA doxorubicin dose; conditions: MNA dose chosen for the tumor study
epidermal cells = conditions: pyramidal CMC-microneedle array, 5 mg/g of CMC, arrays removed after 5 minutes, 72 hours of exposure
Protocol: Cytoxan® was integrated at a concentration of 5 mg/g of CMC, enabling delivery of approximately about 140 μg per array. This is a therapeutically relevant concentration based on the area of skin targeted, yet well below levels associated with systemic toxicities. Living human skin organ cultures were used to assess the cytotoxicty of Cytoxan®. Cytoxan® was delivered by application of arrays to skin explants as we previously described. Arrays and residual material were removed 5 minutes after application, and after 72 hours of exposure, culture living skin explants were cryo-sectioned and fixed. Apoptosis was evaluated using green fluorescent TUNEL assay (In Situ Cell Death Detection Kit, TMR […], Roche, cat #:11-684-795-910).

Row | Compound | tumor growth (B16 melanoma) | survival (B16 melanoma) | apoptosis and necrosis in human skin (human skin) | apoptosis (TUNEL) (epidermal cells)
1 | Poly(I:C) | slowed tumor growth | 50% |  | 
2 | COc1cccc2c1C(=O)c1c(O)c3c(c(O)c1C2=O)C[C@@](O)(C(=O)CO)C[C@@H]3O[C@H]1C[C@H](N)[C@H](O)[C@H](C)O1 [doxorubicin] | slowed tumor growth | 30% | induces apoptosis in human skin without causing necrosis | 
3 | O=P1(N(CCCl)CCCl)NCCCO1 (stereo not drawn) [Cytoxan®, cyclophosphamide] |  |  |  | extensive apoptosis of epidermal cells
